ChEMBL document CHEMBL1152950, “Cytotoxic activity and inhibitory effect on nitric oxide production of triterpene saponins from the roots of Physospermum verticillatum (Waldst & Kit) (Apiaceae)” (Bioorg Med Chem, 2009)

Tests used:
RAW264.7 [1] = test: Antiinflammatory activity in LPS-stimulated mouse RAW264.7 cells assessed as inhibition of NO production after 24 hrs by Griess reagent method; format: functional, cell-based; settings: for IC50: RAW264.7, 24 h
[2] = system: Radical scavenging activity; test: Antioxidant activity assessed as DPPH radical scavenging activity by spectrophotometry; format: functional
A-375 = test: Cytotoxicity against human A375 cells after 48 hrs by SRB assay; format: functional, cell-based; settings: for IC50: A-375, 48 h
ACHN = test: Cytotoxicity against human ACHN cells after 48 hrs by SRB assay; format: functional, cell-based
Caco-2 = test: Cytotoxicity against human Caco-2 cells after 48 hrs by SRB assay; format: functional, cell-based; settings: for IC50: Caco-2, 48 h
LNCaP = test: Cytotoxicity against human LNCAP cells after 48 hrs by SRB assay; format: functional, cell-based
[3] = Cytotoxicity against human 142BR cells after 48 hrs by SRB assay; format: cell-based; settings: for IC50: Homo sapiens; for Activity: human
[4] = Cytotoxicity against human Huh-7D12 cells after 48 hrs by SRB assay; format: functional, cell-based; settings: Huh-7D12, 48 h
MCF7 [5] = test: Cytotoxicity against human MCF7 cells after 48 hrs by SRB assay; format: functional, cell-based; settings: MCF7, 48 h
COR-L23 = test: Cytotoxicity against human COR-L23 cells after 48 hrs by SRB assay; format: functional, cell-based; settings: for IC50: COR-L23, 48 h
A549 = test: Cytotoxicity against human A549 cells after 48 hrs by SRB assay; format: functional, cell-based; settings: A549, 48 h
C32 = test: Cytotoxicity against human C32 cells after 48 hrs by SRB assay; format: functional, cell-based; settings: for IC50: C32, 48 h
RAW264.7 [6] = test: Cytotoxicity against mouse RAW264.7 cells by MTT assay; format: cell-based
HL-60 = test: Cytotoxicity against human HL60 cells; format: functional, cell-based
MCF7 [7] = test: Cytotoxicity against human MCF7 cells; format: functional, cell-based
SK-OV-3 = test: Cytotoxicity against human SKOV3 cells; format: functional, cell-based
HT-29 = test: Cytotoxicity against human HT-29 cells; format: functional, cell-based

Structure (SMILES) | Activity (RAW264.7 [1]) | Activity (A-375) | IC50 (A-375) [µM] | Activity (ACHN) | IC50 (ACHN) [µM] | IC50 (RAW264.7 [1]) [µM] | Activity (Caco-2) | IC50 (Caco-2) [µM] | IC50 (LNCaP) [µM] | IC50 [3] [µM] | Activity [3] | IC50 [4] [µM] | IC50 (MCF7 [5]) [µM] | Activity (COR-L23) | IC50 (COR-L23) [µM] | IC50 (A549) [µM] | Activity (C32) | IC50 (C32) [µM] | IC50 [2] | IC50 (RAW264.7 [6]) [µM] | further results
COc1ccc2c(c1)c(CC(=O)O)c(C)n2C(=O)c1ccc(Cl)cc1 | Dose-dependent effect |  |  |  |  |  |  |  |  |  |  |  |  |  |  |  |  |  |  |  | 
O=C1O[C@H]([C@@H](O)CO)C(O)=C1O [ASCORBIC ACID] |  |  |  |  |  |  |  |  |  |  |  |  |  |  |  |  |  |  |  |  | IC50 ([2]; read-out: IC50): 0.002 µM
C[C@H]1O[C@@H](O[C@H]2CC[C@@]3(C)[C@@H](CC[C@]4(C)[C@@H]3C=C[C@]35OC[C@@]6(CCC(C)(C)C[C@H]63)[C@@H](O)C[C@]54C)[C@]2(C)CO)[C@H](O[C@@H]2O[C@H](CO)[C@@H](O)[C@H](O)[C@H]2O)[C@@H](O[C@@H]2O[C@H](CO)[C@@H](O)[C@H](O)[C@H]2O)[C@H]1O [BUDDLEJASAPONIN IV] | Dose-dependent effect | Dose-dependent effect | 14.6 | Dose-dependent effect | 7.9 | 4.2 | Dose-dependent effect | 40.7 | > 50 | > 50 | Dose-dependent effect | > 50 | > 50 | Dose-dependent effect | 0.4 | 38.3 | Dose-dependent effect | 26.9 | Not Active | 10.6 | 
CC1(C)C[C@@H]2C3=CC[C@@H]4[C@@]5(C)CC[C@H](O[C@H]6OC[C@H](O)[C@H](O[C@@H]7O[C@H](CO)[C@@H](O)[C@H](O)[C@H]7O)[C@H]6O)C(C)(C)[C@@H]5CC[C@@]4(C)[C@]3(C)C[C@H](O)[C@@]2(CO)[C@H](OC(=O)c2ccccc2)C1 [GLOCHIERIOSIDE A] |  |  |  |  |  |  |  |  |  |  |  |  |  |  |  |  |  |  |  |  | IC50 (HL-60): 5.5 µM; IC50 (MCF7 [7]): 29.1 µM; IC50 (SK-OV-3): 22.7 µM; IC50 (HT-29): 6.8 µM
CC1(C)C[C@@H]2C3=CC[C@@H]4[C@@]5(C)CC[C@H](O[C@@H]6OC[C@@H](O)[C@H](O[C@@H]7O[C@H](CO)[C@@H](O)[C@H](O)[C@H]7O)[C@H]6O)C(C)(C)[C@@H]5CC[C@@]4(C)[C@]3(C)C[C@H](O)[C@@]2(CO)[C@H](OC(=O)c2ccccc2)C1 [GLOCHIERIOSIDE B] |  |  |  |  |  |  |  |  |  |  |  |  |  |  |  |  |  |  |  |  | IC50 (HL-60): 6.6 µM; IC50 (MCF7 [7]): 36.1 µM; IC50 (SK-OV-3): 16 µM; IC50 (HT-29): 18.6 µM
CC(=O)O[C@H]1C(=O)[C@@]2(C)[C@H]([C@H](OC(=O)c3ccccc3)[C@]3(O)C[C@H](OC(=O)[C@H](O)[C@@H](NC(=O)c4ccccc4)c4ccccc4)C(C)=C1C3(C)C)[C@]1(OC(C)=O)CO[C@@H]1C[C@@H]2O [PACLITAXEL] |  | Dose-dependent effect |  | Dose-dependent effect |  |  | Dose-dependent effect |  |  |  | Dose-dependent effect |  | 0.08 | Dose-dependent effect |  |  | Dose-dependent effect |  |  |  | 
C[C@H]1O[C@@H](O[C@H]2CC[C@@]3(C)[C@@H](CC[C@]4(C)[C@@H]3C=C[C@]35OC[C@@]6(CCC(C)(C)C[C@H]63)[C@@H](O)C[C@]54C)[C@]2(C)CO)[C@H](O)[C@@H](O[C@@H]2O[C@H](CO)[C@@H](O)[C@H](O)[C@H]2O)[C@H]1O [SAIKOSAPONIN A] | Dose-dependent effect | Dose-dependent effect | 23.9 | Dose-dependent effect | > 50 | 102 | Dose-dependent effect | 17.9 | > 50 | > 50 | Dose-dependent effect | > 50 | > 50 | Dose-dependent effect | 0.6 | 17.7 | Dose-dependent effect | 43.5 | Not Active | > 200 | 
C[C@H]1O[C@@H](O[C@H]2CC[C@@]3(C)[C@@H](CC[C@]4(C)[C@@H]3C=C[C@]35OC[C@@]6(CCC(C)(C)C[C@H]63)[C@@H](O)C[C@]54C)[C@]2(C)CO)[C@H](O)[C@@H](O[C@@H]2O[C@H](CO)[C@@H](O)[C@H](O[C@@H]3O[C@H](CO)[C@@H](O)[C@H](O)[C@H]3O[C@@H]3O[C@H](CO)[C@@H](O)[C@H](O)[C@H]3O)[C@H]2O)[C@H]1O [SONGAROSAPONIN D] | Dose-dependent effect | Dose-dependent effect | 12.4 | Dose-dependent effect | 37.2 | 10.4 | Dose-dependent effect | 16.7 | > 50 | > 50 | Dose-dependent effect | > 50 | > 50 | Dose-dependent effect | 0.4 | 41.1 | Dose-dependent effect | 14 | Not Active | 56.1 | 
CC[C@]1(O)C[C@@H]2CN(CCc3c([nH]c4ccccc34)[C@@](C(=O)OC)(c3cc4c(cc3OC)N(C)[C@H]3[C@@](O)(C(=O)OC)[C@H](OC(C)=O)[C@]5(CC)C=CCN6CC[C@]43[C@@H]65)C2)C1.O=S(=O)(O)O [VINBLASTINE SULFATE] |  | Dose-dependent effect | 7.2 | Dose-dependent effect | 22.7 |  | Dose-dependent effect | 69 | 29.3 | 37.6 | Dose-dependent effect | 45.6 |  | Dose-dependent effect | 45.5 |  | Dose-dependent effect | 3 |  |  | 
